Measured values published in BindingDB's records for doi:10.1021/acsmedchemlett.6b00363 (Philipps University Marburg, 2017).

How the values were obtained:
[1] = molecular target: Beta-1 adrenergic receptor (Homo sapiens, UniProt P08588); experiment: Displacement of [3H](-)CGP12177 from human beta1-AR expressed in CHOK1 cells after 2 hrs by TopCount microscintillation counting method
[2] = molecular target: Beta-2 adrenergic receptor (Homo sapiens, UniProt P07550); experiment: Displacement of [3H](-)CGP12177 from human beta2-AR expressed in CHOK1 cells after 2 hrs by TopCount microscintillation counting method
Chain of Beta-2 adrenergic receptor (P07550 whole entry): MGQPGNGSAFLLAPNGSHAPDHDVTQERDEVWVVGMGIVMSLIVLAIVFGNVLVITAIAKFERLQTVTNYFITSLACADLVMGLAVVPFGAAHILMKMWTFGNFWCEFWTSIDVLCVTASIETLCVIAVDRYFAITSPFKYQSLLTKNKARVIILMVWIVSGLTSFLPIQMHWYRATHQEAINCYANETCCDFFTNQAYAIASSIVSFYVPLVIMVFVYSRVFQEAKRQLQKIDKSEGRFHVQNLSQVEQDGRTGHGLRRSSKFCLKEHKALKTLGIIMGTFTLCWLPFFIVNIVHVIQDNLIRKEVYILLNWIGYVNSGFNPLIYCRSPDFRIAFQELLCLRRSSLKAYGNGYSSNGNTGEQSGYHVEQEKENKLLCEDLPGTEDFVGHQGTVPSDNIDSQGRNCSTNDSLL

Chain of Beta-1 adrenergic receptor (P08588 whole entry): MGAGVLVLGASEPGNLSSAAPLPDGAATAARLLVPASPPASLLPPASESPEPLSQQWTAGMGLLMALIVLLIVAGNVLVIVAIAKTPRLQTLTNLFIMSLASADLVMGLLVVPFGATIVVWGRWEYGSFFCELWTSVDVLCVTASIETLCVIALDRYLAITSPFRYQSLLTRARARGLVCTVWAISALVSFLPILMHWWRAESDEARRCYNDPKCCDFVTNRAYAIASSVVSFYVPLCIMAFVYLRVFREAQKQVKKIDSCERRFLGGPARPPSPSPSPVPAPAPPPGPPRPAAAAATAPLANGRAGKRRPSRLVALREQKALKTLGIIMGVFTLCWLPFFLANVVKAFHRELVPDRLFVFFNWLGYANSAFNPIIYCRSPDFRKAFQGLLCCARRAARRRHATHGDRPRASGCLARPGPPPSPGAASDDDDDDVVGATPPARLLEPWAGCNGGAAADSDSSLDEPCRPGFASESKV

Row | Kd [1] | Kd [2] | Structure (SMILES)
1 | 97.7 µM |  | CN(C)CCOc1ccc2ccccc2c1C=O
2 |  | 17.8 µM | CCCCN(C)Cc1c(O)cc(C)c2c1O/C(=C\c1cc3cc(Br)ccc3o1)C2=O
3 | 257 µM |  | C[n+]1c(/C=C/Nc2ccccc2)sc2ccccc21
4 | 46.8 µM | 25.1 µM | Cc1cc(O)c(CN(C)C)c2c1C(=O)/C(=C/c1ccccc1)O2
5 | 38 µM | 14.5 µM | Cc1cc(O)c(CN2CCCC2)c2c1C(=O)/C(=C/c1cc3ccccc3o1)O2
